In US6110897A, “Antiinflammatory cell adhesion inhibitors” (Glycorex AB, priority 1997, dated 2000):
Read-outs that look alike come from different tables or passages of the source.

What was measured:
E- and P-selectins = test: Selectin cell adhesion assays, E- and P-selectin taken together (statements in words); type: cell-based, human; conditions: removal of the acetamido or acetyl group, compared with II-1
Description: Primary assays for investigation of the action of compounds (I) on cell adhesion to recombinant soluble selectin fusion proteins:
The preparation of soluble E- and P-selectin-IgG fusion proteins, composed of the extracellular portions of human selectins E and P and the human immunoglobulin (IgG) heavy chain hinge, CH2 and CH3 regions, has been described in Cell 1991, 67, 35. These recombinant proteins contain the signal sequence, the lectin-like domain, the EGF (epidermal growth factor) repeat domain and six (E-selectin) and two (P-selectin) of the CR-like (complement regulatory) domains. […] Adhesion of labelled HL60 tumor cells was quantitatively measured in a cytofluoro-meter. The specific cell binding in the presence of inhibitors (I) was calculated compared with nonspecific binding to the CD4-IgG fusion protein.
The activity of compounds (I), (II) and (III) was measured in adhesion assays as the inhibition of the binding of promyelocytic leukemia HL60 cells (ATCC CRL 1964) to recombinant solid phase bound selectin-fusion proteins. […] Recombinant proteins were expressed as soluble proteins after DEAE/dextran facilitated plasmid DNA trans-fection into COS cells according to standard procedures. […] The amount of bound cells was quantitated in a cytofluorometer (CytoFluor 2300, Millipore, Bedford, U.S.A.). […]

[1] = tested on: E-selectin-IgG fusion protein; test: Inhibition of HL60 cell adhesion to recombinant E-selectin-IgG fusion protein; type: cell-based, human
Experimental: (§1) These recombinant proteins contain the signal sequence, the lectin-like domain, the EGF (epidermal growth factor) repeat domain and six (E-selectin) and two (P-selectin) of the CR-like (complement regulatory) domains. […] Adhesion of labelled HL60 tumor cells was quantitatively measured in a cytofluoro-meter. The specific cell binding in the presence of inhibitors (I) was calculated compared with nonspecific binding to the CD4-IgG fusion protein. […] Genetic constructs for expression of extracellular portions of the human selectins E and P, joined to human immunoglobulin heavy chain hinge, CH2 and CH3 regions were obtained from B. Seed, Massachusetts General Hospital, Boston, U.S.A. […] CD4-IgG served as a negative control. Recombinant proteins were expressed as soluble proteins after DEAE/dextran facilitated plasmid DNA trans-fection into COS cells according to standard procedures. […] After washing with PBS, plates were blocked for 0.5 h with 150 μl/well of 1% BSA in PBS. […] After one PBS wash, 40 μl/well binding buffer (50 mM Hepes, pH 7.5, 100 mM NaCl, 100 μM MgCl2. 100 μM MnCl2, 100 μM CaCl2, 1 mg/ml BSA) were added together with test compounds or antibodies (see below). Parallel to the preparation of the plates, HL60 cells, grown in DMEM medium with 20% FCS, were washed two times with PBS before incubation for 20 min in Fc-receptor blocking buffer at RT. […] The amount of bound cells was quantitated in a cytofluorometer (CytoFluor 2300, Millipore, Bedford, U.S.A.). Specific cell binding was calculated by subtraction of the signals in wells coated with CD4-IgG (nonspecific binding) from the signals in wells coated with selectin-IgG. […] IC50 values were determined according to the four parameter logistics model. Each IC50 determination was repeated on another day at least once.

[2] = target: T1, P-selectin-IgG fusion protein (Homo sapiens, UniProt P16109); test: Inhibition of HL60 cell adhesion to recombinant P-selectin-IgG fusion protein; type: cell-based; conditions: for IC50: concentration to block adhesion of 50% of HL60 cells compared with negative control
T1 construct: the lectin-like domain, the EGF repeat domain and six (E-selectin) and two (P-selectin) of the complement regulatory-like domains; made in house; host or cells: COS cells (DEAE/dextran plasmid transfection; culture supernatant; genetic constructs from B. Seed, Massachusetts General Hospital)
Experimental: as §1

E-selectin-Ig = conditions: cited from earlier work
[3] = concentration to block adhesion of 50% of HL60 cells compared with negative control; read-out: E-selectin IC50

T1 sequence (P16109 with tags, fused parts or gaps limits assumed): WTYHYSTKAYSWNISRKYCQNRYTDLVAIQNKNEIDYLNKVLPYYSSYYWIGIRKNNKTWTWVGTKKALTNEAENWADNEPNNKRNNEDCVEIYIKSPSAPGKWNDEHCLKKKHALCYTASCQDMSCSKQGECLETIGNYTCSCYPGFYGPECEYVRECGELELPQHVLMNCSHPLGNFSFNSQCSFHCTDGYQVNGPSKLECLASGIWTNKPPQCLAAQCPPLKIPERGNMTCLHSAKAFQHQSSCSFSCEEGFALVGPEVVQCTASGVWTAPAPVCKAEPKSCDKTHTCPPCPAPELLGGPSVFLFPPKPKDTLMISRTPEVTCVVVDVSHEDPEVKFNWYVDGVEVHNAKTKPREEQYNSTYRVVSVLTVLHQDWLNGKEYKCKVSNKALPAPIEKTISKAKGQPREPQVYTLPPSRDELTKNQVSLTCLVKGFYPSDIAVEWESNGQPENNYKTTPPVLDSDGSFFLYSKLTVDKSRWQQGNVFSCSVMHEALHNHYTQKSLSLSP

| IC50 [1, 3] [µM] | IC50 [2] [µM] | SMILES | inhibitory potency relative to II-1 (E- and P-selectins) | improvement of the E-selectin IC50 over II-1 ([1]; I-1 over reference compound II-1) | IC50 ([1]; read-out: E-selectin IC50; concentration to block adhesion of 50% of HL60 cells compared with negative control) [µM] | enhancement of binding affinity to P-selectin (factor) ([2]; fully deacetylated I-1 compared with II-1) | enhanced inhibitory potency compared to sLe^X (fold) (E-selectin-Ig; cell-free ELISA, E-selectin-Ig competitive binding) | IC50 (E-selectin-Ig; cell-free system, read-out: IC50, E-selectin-Ig competitive binding) [µM] |
| --- | --- | --- | --- | --- | --- | --- | --- | --- |
| 700 | 700 | CC(=O)NC1C(OCCCCCCN)OC(CO)C(OC2OC(CO)C(O)C(OC3(C(=O)O)CC(O)CC(C(O)C(O)CO)O3)C2O)C1OC1OC(C)C(O)C(O)C1O (centres unmarked) [III-1] | only slightly improved |  |  |  |  |  |
| 900 | 1000 | CC(=O)NC1C(OCCCCCCN)OC(CO)C(OC2OC(CO)C(O)C(OC3(C(=O)O)CC(O)C(N)C(C(O)C(O)CO)O3)C2O)C1OC1OC(C)C(O)C(O)C1O (centres unmarked) [III-2] | only slightly improved |  |  |  |  |  |

Second part, the molecule before the results:

| SMILES | IC50 [1, 3] [µM] | IC50 [2] [µM] | inhibitory potency relative to II-1 (E- and P-selectins) | improvement of the E-selectin IC50 over II-1 ([1]; I-1 over reference compound II-1) | IC50 ([1]; read-out: E-selectin IC50; concentration to block adhesion of 50% of HL60 cells compared with negative control) [µM] | enhancement of binding affinity to P-selectin (factor) ([2]; fully deacetylated I-1 compared with II-1) | enhanced inhibitory potency compared to sLe^X (fold) (E-selectin-Ig; cell-free ELISA, E-selectin-Ig competitive binding) | IC50 (E-selectin-Ig; cell-free system, read-out: IC50, E-selectin-Ig competitive binding) [µM] |
| --- | --- | --- | --- | --- | --- | --- | --- | --- |
| CC1OC(OC2C(N)C(OCCCCCCN)OC(CO)C2OC2OC(CO)C(O)C(OC3(C(=O)O)CC(O)C(N)C(C(O)C(O)CO)O3)C2O)C(O)C(O)C1O [Compound I-1, 2-Amino-4-O-[3-O-[5-amino-3,5-dideoxy-D-glycero-α-D-galactononulopyranosyl]-β-D-galactopyranosyl]-1-[6-aminohexyl]-2-deoxy-3-O-[α-L-fucopyranosyl]-β-D-glycopyranose] |  | 160 |  | significant improvement | 270 | 12.5 |  |  |
| CC(=O)NC1C(O)CC(OC2C(O)C(CO)OC(OC3C(CO)OC(O)C(N)C3OC3OC(C)C(O)C(O)C3O)C2O)(C(=O)O)OC1C(O)C(O)CO (centres unmarked) [sLe^X (GlcNH2)] |  |  |  |  |  |  | 5 | 77 |
| CC(=O)NC1C(O)CC(OC2C(O)C(CO)OC(OC3C(CO)OC(OCCCCCCN)C(NC(C)=O)C3OC3OC(C)C(O)C(O)C3O)C2O)(C(=O)O)OC1C(O)C(O)CO (centres unmarked) [II-1] | 1000 | 2000 |  |  |  |  |  |  |
